How the values were obtained:
human GCGR = biological target: T1, human GCGR (Homo sapiens, UniProt P47871); assay: cAMP activity assay, cells expressing human GCGR; assay type: cell-based;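 note: cAMP production read by luminescence after one hour of peptide exposure at room temperature, EC50 from logistic curve fit, native glucagon and GLP-1 as control peptides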
T1 construct: expressed in transfected cells; grown with Blasticidin and Hygromycin
Protocol: (§1) Activity of the incretin peptides or the conjugates at the Glucagon receptor (GCGR) and GLP-1 receptor (GLP1R) may be measured in a cAMP activity assay as follows.
(§2) Peptides are dissolved in 100% DMSO and serially diluted to generate 10 point titrations. The peptide solutions are then transferred into 384-well assay plates (150 nL/well). Assay ready frozen cells expressing human GLP1R or human GCGR are suspended in growth media consisting of DMEM medium (GIBCO), 10% FBS (GIBCO), 1×NEAA(GIBCO), 1×P/S (GIBCO), 10 μg/mL Blasticidin (GIBCO) and 200 μg/mL Hygromycin (GIBCO). […] The cell suspensions (15 μL) are then added to the assay plates containing the peptide solutions (30,000 cells/well for human GCGR; 10,000 cells/well for human GLP1R). The cells are incubated for one hour at room temperature in the dark.
(§3) Production of cAMP may be determined using HitHunterr cAMPXS kits (DiscoverX) following the manufacturer's protocol. The plates are incubated for overnight at room temperature in the dark. Luminescence may be measured using an EnVision Multilabel plate reader (Perkin Elmer). Native GLP-1 and Glucagon (Bachem) may be used as control peptides. EC50 values may be calculated using uses a 4 parameter logistic fit based on the Levenberg-Marquardt algorithm.

human GLP1R = human GLP1R (Homo sapiens, UniProt P43220); assay: cAMP activity assay, cells expressing human GLP1R; assay type: cell-based
Chain of human GLP1R (P43220 24-463): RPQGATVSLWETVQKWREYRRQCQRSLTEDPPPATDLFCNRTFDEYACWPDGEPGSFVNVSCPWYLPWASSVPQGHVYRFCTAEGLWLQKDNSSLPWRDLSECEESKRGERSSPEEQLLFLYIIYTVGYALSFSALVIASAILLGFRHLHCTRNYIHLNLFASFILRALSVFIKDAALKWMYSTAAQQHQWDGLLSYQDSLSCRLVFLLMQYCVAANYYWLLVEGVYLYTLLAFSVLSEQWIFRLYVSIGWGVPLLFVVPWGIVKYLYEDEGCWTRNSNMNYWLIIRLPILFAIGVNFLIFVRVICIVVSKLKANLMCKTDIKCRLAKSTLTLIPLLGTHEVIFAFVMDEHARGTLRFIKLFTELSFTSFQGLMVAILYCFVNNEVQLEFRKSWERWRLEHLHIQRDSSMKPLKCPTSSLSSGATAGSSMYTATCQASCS
Protocol: as §1, §2, §3

Insulin Receptor = biological target: T2, Insulin Receptor (Sus scrofa, UniProt F1SCL0); assay: Insulin Receptor Binding Assay, minipig; conditions: Table 7, control molecules, minipig IR
T2 construct: expressed in transfected cells
T2 sequence (F1SCL0 28-1382): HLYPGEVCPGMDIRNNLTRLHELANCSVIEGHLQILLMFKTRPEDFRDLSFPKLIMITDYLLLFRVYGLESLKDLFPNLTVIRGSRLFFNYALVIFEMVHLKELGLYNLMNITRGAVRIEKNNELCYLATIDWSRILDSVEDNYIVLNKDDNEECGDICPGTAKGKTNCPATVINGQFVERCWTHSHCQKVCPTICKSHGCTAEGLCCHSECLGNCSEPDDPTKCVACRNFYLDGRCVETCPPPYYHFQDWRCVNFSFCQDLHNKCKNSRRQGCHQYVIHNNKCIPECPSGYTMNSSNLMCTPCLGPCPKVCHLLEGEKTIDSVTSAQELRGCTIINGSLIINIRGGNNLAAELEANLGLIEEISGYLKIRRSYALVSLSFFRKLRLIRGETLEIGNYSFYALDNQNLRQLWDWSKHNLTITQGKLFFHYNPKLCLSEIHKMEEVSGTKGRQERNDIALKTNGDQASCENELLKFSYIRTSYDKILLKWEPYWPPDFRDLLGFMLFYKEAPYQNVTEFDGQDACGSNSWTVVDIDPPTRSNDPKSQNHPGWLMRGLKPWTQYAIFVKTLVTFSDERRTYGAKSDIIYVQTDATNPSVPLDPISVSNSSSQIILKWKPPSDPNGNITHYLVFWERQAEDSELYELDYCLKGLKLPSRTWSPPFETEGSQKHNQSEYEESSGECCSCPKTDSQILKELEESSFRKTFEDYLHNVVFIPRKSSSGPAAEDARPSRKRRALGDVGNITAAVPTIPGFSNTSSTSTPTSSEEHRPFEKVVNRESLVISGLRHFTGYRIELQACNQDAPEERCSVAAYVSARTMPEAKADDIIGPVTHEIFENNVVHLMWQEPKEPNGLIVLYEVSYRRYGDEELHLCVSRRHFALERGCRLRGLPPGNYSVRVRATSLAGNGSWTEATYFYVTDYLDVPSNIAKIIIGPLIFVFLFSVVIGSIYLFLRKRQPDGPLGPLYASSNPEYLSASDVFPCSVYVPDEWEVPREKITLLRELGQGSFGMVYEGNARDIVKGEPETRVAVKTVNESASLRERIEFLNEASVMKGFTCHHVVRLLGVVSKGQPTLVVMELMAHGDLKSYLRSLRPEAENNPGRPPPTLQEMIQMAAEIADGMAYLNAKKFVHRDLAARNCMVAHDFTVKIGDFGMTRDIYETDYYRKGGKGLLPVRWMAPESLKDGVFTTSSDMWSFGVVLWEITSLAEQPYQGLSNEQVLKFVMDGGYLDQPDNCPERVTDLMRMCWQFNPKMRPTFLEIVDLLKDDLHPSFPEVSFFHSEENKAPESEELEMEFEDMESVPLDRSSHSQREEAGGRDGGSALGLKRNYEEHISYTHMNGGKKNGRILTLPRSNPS
Protocol: Method 1 IR binding assay is a whole cell binding method using CHO cells overexpressing human IR(B). The cells are grown in F12 media containing 10% FBS and antibiotics (G418, Penicillin/Strepavidin), plated at 40,000 cells/well in a 96-well tissue culture plate for at least eight hours. The cells are then serum starved by switching to DMEM media containing 1% BSA (insulin-free) overnight. The cells are washed twice with chilled DMEM media containing 1% BSA (insulin-free) followed by the addition of conjugate at appropriate concentration in 90 μL of the same media. The cells are incubated on ice for 60 minutes.
Method 2 IR binding assay is run in a scintillation proximity assay (SPA) in 384-well format using cell membranes prepared from CHO cells overexpressing human IR(B) grown in F12 media containing 10% FBS and antibiotics (G418, Penicillin/Strepavidin). Cell membranes are prepared in 50 mM Tris buffer, pH 7.8 containing 5 mM MgCl2. The assay buffer contains 50 mM Tris buffer, pH 7.5, 150 mM NaCl, 1 mM CaCl2, 5 mM MgCl2, 0.1% BSA and protease inhibitors (Complete-Mini-Roche). Cell membranes are added to WGA PVT PEI SPA beads (5 mg/mL final concentration) followed by addition of conjugate at appropriate concentrations.

human IR = biological target: T3, human IR (Homo sapiens, UniProt P06213); assay: Insulin Receptor Phosphorylation (pAkt) Assay, CHO cells overexpressing human IR; assay type: cell-based; conditions: Table 7, control molecules, read-out: Insulin Receptor pAK Assay EC50 Human
T3 construct: expressed in transfected cells; host or cells: CHO cells (G418 selection)
T3 sequence (P06213 28-758 limits assumed): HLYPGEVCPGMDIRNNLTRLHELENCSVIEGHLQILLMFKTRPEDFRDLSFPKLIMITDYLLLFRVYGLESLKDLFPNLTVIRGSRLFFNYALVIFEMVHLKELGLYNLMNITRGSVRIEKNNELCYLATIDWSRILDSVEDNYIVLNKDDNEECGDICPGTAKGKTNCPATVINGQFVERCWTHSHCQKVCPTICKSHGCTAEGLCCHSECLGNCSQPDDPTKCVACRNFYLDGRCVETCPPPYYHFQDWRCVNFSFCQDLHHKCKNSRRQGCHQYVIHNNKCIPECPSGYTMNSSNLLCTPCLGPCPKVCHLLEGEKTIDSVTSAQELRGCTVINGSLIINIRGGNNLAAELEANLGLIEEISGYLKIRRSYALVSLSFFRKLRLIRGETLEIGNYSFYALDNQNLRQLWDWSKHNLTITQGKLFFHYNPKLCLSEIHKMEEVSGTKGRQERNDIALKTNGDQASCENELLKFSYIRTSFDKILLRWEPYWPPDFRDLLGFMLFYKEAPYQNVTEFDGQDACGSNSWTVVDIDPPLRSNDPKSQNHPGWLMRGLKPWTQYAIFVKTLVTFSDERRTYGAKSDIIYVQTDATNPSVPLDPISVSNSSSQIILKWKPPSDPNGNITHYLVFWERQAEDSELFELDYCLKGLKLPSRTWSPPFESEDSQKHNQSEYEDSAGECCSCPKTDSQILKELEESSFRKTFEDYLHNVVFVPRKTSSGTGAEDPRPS
T3 sequence (P06213 763-1382 limits assumed): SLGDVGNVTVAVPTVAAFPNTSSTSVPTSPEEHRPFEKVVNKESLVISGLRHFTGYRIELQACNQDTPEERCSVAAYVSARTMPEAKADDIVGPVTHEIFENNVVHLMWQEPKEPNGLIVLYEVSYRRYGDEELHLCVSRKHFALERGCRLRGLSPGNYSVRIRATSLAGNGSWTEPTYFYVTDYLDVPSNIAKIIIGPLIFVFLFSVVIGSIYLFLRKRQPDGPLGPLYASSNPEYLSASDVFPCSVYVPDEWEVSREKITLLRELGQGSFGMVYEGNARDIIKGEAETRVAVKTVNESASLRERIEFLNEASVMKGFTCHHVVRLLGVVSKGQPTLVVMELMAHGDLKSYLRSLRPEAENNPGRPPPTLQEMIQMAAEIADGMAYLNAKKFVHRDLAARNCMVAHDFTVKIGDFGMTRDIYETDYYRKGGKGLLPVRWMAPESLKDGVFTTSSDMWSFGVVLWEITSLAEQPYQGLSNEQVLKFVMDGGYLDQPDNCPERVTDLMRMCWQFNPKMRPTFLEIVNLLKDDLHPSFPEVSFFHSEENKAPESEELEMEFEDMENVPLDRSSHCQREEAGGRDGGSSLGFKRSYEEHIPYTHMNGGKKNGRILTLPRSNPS

minipig IR = biological target: T4, minipig IR (Sus scrofa, UniProt F1SCL0); assay: Insulin Receptor Phosphorylation (pAkt) Assay, CHO cells overexpressing minipig IR; assay type: cell-based; conditions: Table 7, control molecules, read-out: Insulin Receptor pAK Assay EC50 Minipig
T4 construct: expressed in transfected cells; host or cells: CHO cells (G418 selection)
T4 sequence (F1SCL0 28-1382): as the sequence (F1SCL0 28-1382) above

T1 sequence (P47871 26-477): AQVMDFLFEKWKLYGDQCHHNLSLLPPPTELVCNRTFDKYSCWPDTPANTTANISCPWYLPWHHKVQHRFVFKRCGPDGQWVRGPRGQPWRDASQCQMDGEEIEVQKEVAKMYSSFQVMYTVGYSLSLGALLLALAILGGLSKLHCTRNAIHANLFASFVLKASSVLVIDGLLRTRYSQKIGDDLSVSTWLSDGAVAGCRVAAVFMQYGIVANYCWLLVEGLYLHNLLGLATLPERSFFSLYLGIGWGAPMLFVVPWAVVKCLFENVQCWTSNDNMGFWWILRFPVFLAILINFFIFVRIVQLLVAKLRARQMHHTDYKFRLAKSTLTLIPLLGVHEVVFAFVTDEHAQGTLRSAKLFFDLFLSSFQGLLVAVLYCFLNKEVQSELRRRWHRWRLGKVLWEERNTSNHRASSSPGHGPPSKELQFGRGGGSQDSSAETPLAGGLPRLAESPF

With `CCCCCCCCCCCCCCCC(=O)N[C@@H](CCC(=O)N[C@@H](CCC(=O)NCCCC[C@H](NC(=O)[C@H](CC(=O)O)NC(=O)[C@H](CO)NC(=O)[C@@H](NC(=O)[C@H](Cc1ccccc1)NC(=O)[C@@H](NC(=O)CNC(=O)[C@H](CCC(=O)O)NC(=O)[C@@H](CO)NC(=O)[C@@H](N)Cc1c[nH]cn1)[C@@H](C)O)[C@@H](C)O)C(=O)N[C@@H](CO)C(=O)N[C@@H](CCCCN)C(=O)N[C@@H](Cc1ccc(O)cc1)C(=O)N[C@@H](CC(C)C)C(=O)N[C@@H](CC(=O)O)C(=O)N[C@@H](CCC(=O)O)C(=O)N[C@@H](CCCNC(=N)N)C(=O)N[C@@H](C)C(=O)N[C@@H](C)C(=O)N[C@@H](CCC(N)=O)C(=O)N[C@@H](CC(=O)O)C(=O)N[C@@H](Cc1ccccc1)C(=O)N[C@H](C(=O)N[C@@H](CCCCN=[N+]=[N-])C(=O)N[C@@H](Cc1c[nH]c2ccccc12)C(=O)N[C@@H](CC(C)C)C(=O)N[C@@H](CC(C)C)C(=O)N[C@@H](CC(=O)O)C(=O)N[C@H](C(N)=O)[C@@H](C)O)C(C)C)C(=O)O)C(=O)O` [PEP75] the EC50 (human GCGR) was over 5 nM, the GCGR/GLP1R ratio (human GCGR; Table 5, ratio of hGCGR EC50 to hGLP1R EC50) was over 72 and the EC50 (human GLP1R) was 0.07 nM.

With Insulin degludec [ID] the EC50 (Insulin Receptor) was 8.46 nM.

With Insulin levemir [IL] the EC50 (human IR) was 0.51 nM and the EC50 (minipig IR) was 0.5 nM.

— US20190175744A1, “INSULIN-INCRETIN CONJUGATES” (Merck Sharp & Dohme Corp., priority 2016, published 2019)
